Test results reported in patent US20260258035A1, “FIVE-MEMBERED AND SIX-MEMBERED NITROGEN-CONTAINING COMPOUND, AND INTERMEDIATE, PREPARATION METHOD AND USE THEREOF” (HANGZHOU SYNRX THERAPEUTICS BIOMEDICAL TECHNOLOGY CO., LTD., priority 2022, published 2026).
Where two headings read alike, the source gives them in different places.

Assays:
[1] = molecular target: PARG (Homo sapiens, UniProt Q86W56); assay: Biochemical assay (PARG, TFMU-ADPr substrate)
[2] = test system: HCC1806; assay: Cell viability assay (CellTiter-Glo); assay type: cell-based, Human; conditions: HCC1806, 7 days, CellTiter-Glo, read-out: IC50 (nM) in cell viability assay
[3] = 4 nM PARG, 66.2 uM TFMU-ADPr, 3 min at room temperature

PARG, sequence (Q86W56 whole entry): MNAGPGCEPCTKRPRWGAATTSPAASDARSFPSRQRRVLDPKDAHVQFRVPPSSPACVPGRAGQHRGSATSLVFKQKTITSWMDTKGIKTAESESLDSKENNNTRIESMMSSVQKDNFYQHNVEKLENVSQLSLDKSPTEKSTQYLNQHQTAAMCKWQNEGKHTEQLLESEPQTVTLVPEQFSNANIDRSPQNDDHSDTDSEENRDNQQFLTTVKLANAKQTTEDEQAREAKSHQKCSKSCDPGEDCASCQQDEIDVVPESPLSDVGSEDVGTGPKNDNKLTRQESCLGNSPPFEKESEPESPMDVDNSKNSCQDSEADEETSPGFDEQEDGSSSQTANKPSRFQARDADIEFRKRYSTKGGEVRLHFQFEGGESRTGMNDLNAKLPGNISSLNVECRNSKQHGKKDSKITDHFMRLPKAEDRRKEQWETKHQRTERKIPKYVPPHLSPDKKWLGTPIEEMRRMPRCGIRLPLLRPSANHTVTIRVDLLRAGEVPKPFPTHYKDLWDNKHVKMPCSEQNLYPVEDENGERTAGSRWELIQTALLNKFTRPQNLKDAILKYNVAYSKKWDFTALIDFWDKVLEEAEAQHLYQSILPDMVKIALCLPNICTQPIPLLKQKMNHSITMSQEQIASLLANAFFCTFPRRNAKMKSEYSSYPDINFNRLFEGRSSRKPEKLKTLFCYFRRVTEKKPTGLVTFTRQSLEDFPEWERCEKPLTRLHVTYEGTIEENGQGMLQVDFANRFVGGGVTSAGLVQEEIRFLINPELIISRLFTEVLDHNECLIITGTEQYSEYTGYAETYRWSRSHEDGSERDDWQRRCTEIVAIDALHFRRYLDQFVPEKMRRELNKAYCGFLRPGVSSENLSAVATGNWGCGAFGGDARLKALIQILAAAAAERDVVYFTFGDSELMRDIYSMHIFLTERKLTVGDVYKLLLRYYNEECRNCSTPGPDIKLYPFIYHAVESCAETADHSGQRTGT

| IC50 ([1]; PARG, TFMU-ADPr substrate) [nM] | IC50 ([2]; Homo sapiens, HCC1806, 168 h) [nM] | IC50 [1, 3] [nM] | IC50 [2] [nM] | Structure (SMILES) |
| --- | --- | --- | --- | --- |
| 6.55 | 828 | – | – | CC1(NS(=O)(=O)c2cc(N3CCN(C(=O)C4(OCC(=O)O)CC4)CC3)c3cnc(-c4nnc(C(F)F)s4)n3c2)CC1 [Example 382, 2-(1-(4-(3-(5-(difluoromethyl)-1,3,4-thiadiazol-2-yl)-6-(N-(1-methylcyclopropyl)sulfamoyl)imidazo[1,5-a]pyridin-8-yl)piperazine-1-carbonyl)cyclopropoxy)acetic acid] |
| 38 | 1280 | – | – | CN(C)CC(=O)N1CCN(c2cc(S(=O)(=O)NC3(C#N)CC3)cn3c(-c4nnc(C(F)(F)F)s4)ncc23)CC1 [Example 250, N-(1-cyanocyclopropyl)-8-(4-(dimethylglycyl)piperazin-1-yl)-3-(5-(trifluoromethyl)-1,3,4-thiadiazol-2-yl)imidazo[1,5-a]pyridine-6-sulfonamide] |
| 12.6 | 213 | – | – | COCC1CN(c2cc(S(=O)(=O)NC3(C)COC3)cn3c(-c4nnc(C(F)(F)F)s4)nc(Cl)c23)CCN1 (centres unmarked) [Example 135, 1-chloro-8-(3-(methoxymethyl)piperazin-1-yl)-N-(3-methyloxetan-3-yl)-3-(5-(trifluoromethyl)-1,3,4-thiadiazol-2-yl)imidazo[1,5-a]pyridine-6-sulfonamide] |
| 6.56 | 1700 | – | – | CC1(NS(=O)(=O)c2cc(N3CCN4C(=O)NCC4C3)c3cnc(-c4nnc(C(F)(F)F)s4)n3c2)COC1 (centres unmarked) [Example 394, N-(3-methyloxetan-3-yl)-8-(3-oxohexahydroimidazo[1,5-a]pyrazin-7(1H)-yl)-3-(5-(trifluoromethyl)-1,3,4-thiadiazol-2-yl)imidazo[1,5-a]pyridine-6-sulfonamide] |
| 5.01 | 177 | – | – | [2H]C([2H])([2H])OCC1CN(c2cc(S(=O)(=O)NC3(C)COC3)cn3c(-c4nnc(C(F)F)s4)nc(Cl)c23)CCN1 (centres unmarked) [Example 391, 1-chloro-3-(5-(difluoromethyl)-1,3,4-thiadiazol-2-yl)-8-(3-((methoxy-d3)methyl)piperazin-1-yl)-N-(3-methyloxetan-3-yl)imidazo[1,5-a]pyridine-6-sulfonamide] |
| 34.1 | 5000 to 30000 | < 100 | 9940 | N#CC1(NS(=O)(=O)c2cc(N3CCN(C4COC4)CC3)c3cnc(-c4nnc(C(F)F)s4)n3c2)CC1 [Example 147, N-(1-cyanocyclopropyl)-3-(5-(difluoromethyl)-1,3,4-thiadiazol-2-yl)-8-(4-(oxetan-3-yl)piperazin-1-yl)imidazo[1,5-a]pyridine-6-sulfonamide] |
| 525 | 5000 to 30000 | 500 to 1000 | 6070 | CC(C)C(=O)N1CCN(c2nc(S(=O)(=O)NC3(C)CC3)cn3c(-c4nnc(C(F)F)s4)ncc23)CC1 [Example 162, 3-(5-(difluoromethyl)-1,3,4-thiadiazol-2-yl)-8-(4-isobutyrylpiperazin-1-yl)-N-(1-methylcyclopropyl)imidazo[1,5-a]pyrazine-6-sulfonamide] |
| 3.02 | 38.7 | – | – | COC(C)(C)C(=O)N1CCN(c2cc(S(=O)(=O)NC3(C#N)CC3)cn3c(-c4nnc(C(F)(F)F)s4)ncc23)CC1 [Example 296, N-(1-cyanocyclopropyl)-8-(4-(2-methoxy-2-methylpropanoyl)piperazin-1-yl)-3-(5-(trifluoromethyl)-1,3,4-thiadiazol-2-yl)imidazo[1,5-a]pyridine-6-sulfonamide] |
| 0.71 | 85 | – | – | CN(C)CCN(C)C(=O)N1CCN(c2cc(S(=O)(=O)NC3(C)COC3)cn3c(-c4nnc(C(F)F)s4)nc(Cl)c23)CC1 [Example 188, 4-(1-chloro-3-(5-(difluoromethyl)-1,3,4-thiadiazol-2-yl)-6-(N-(3-methyloxetan-3-yl)sulfamoyl)imidazo[1,5-a]pyridin-8-yl)-N-(2-(dimethylamino)ethyl)-N-methylpiperazine-1-carboxamide] |
| 0.44 | 78.1 | – | – | CC(C)C(=O)N1CCN(c2cc(S(=O)(=O)NC3(C)CC3)cn3c(-c4nnc(C(F)F)s4)ncc23)C[C@H]1CO [Example 331, (S)-3-(5-(difluoromethyl)-1,3,4-thiadiazol-2-yl)-8-(3-(hydroxymethyl)-4-isobutyrylpiperazin-1-yl)-N-(1-methylcyclopropyl)imidazo[1,5-a]pyridine-6-sulfonamide] |
| 115 | 7320 | – | – | CN(C)CCC(=O)N1CCN(c2cc(S(=O)(=O)NC3(C#N)CC3)cn3c(-c4nnc(C(F)(F)F)s4)ncc23)CC1 [Example 249, N-(1-cyanocyclopropyl)-8-(4-(3-(dimethylamino)propanoyl)piperazin-1-yl)-3-(5-(trifluoromethyl)-1,3,4-thiadiazol-2-yl)imidazo[1,5-a]pyridine-6-sulfonamide] |

Further lines, the compound ahead of its results:

| Structure (SMILES) | IC50 ([1]; PARG, TFMU-ADPr substrate) [nM] | IC50 ([2]; Homo sapiens, HCC1806, 168 h) [nM] | IC50 [1, 3] [nM] | IC50 [2] [nM] |
| --- | --- | --- | --- | --- |
| CN1CCC(F)(F)C1C(=O)N1CCN(c2cc(S(=O)(=O)NC3(C)CC3)cn3c(-c4nnc(C(F)(F)F)s4)ncc23)CC1 (centres unmarked) [Example 351, 8-(4-(3,3-difluoro-1-methylpyrrolidine-2-carbonyl)piperazin-1-yl)-N-(1-methylcyclopropyl)-3-(5-(trifluoromethyl)-1,3,4-thiadiazol-2-yl)imidazo[1,5-a]pyridine-6-sulfonamide] | 4.13 | 163 | – | – |
| N#CC1(NS(=O)(=O)c2cc(N3CCN(C(=O)N4CCCC4)CC3)c3cnc(-c4nnc(C(F)(F)F)s4)n3c2)CC1 [Example 229, N-(1-cyanocyclopropyl)-8-(4-(pyrrolidine-1-carbonyl)piperazin-1-yl)-3-(5-(trifluoromethyl)-1,3,4-thiadiazol-2-yl)imidazo[1,5-a]pyridine-6-sulfonamide] | 3.31 | 800 | – | – |
| CC1(O)CC2(CCN(c3cc(S(=O)(=O)NC4(C#N)CC4)cn4c(-c5nnc(C(F)(F)F)s5)ncc34)CC2)C1 [Example 242, N-(1-cyanocyclopropyl)-8-(2-hydroxy-2-methyl-7-azaspiro[3.5]nonan-7-yl)-3-(5-(trifluoromethyl)-1,3,4-thiadiazol-2-yl)imidazo[1,5-a]pyridine-6-sulfonamide] | 52.5 | 2980 | – | – |
| CNC1(C(=O)N2CCN(c3cc(S(=O)(=O)NC4(C#N)CC4)cn4c(-c5nnc(C(F)(F)F)s5)ncc34)CC2)CC1 [Example 275, N-(1-cyanocyclopropyl)-8-(4-(1-(methylamino)cyclopropane-1-carbonyl)piperazin-1-yl)-3-(5-(trifluoromethyl)-1,3,4-thiadiazol-2-yl)imidazo[1,5-a]pyridine-6-sulfonamide] | 22.9 | 472 | – | – |
| N#CC1(NS(=O)(=O)c2cc(N3CCN(C(=O)C4C5COCC54)CC3)c3cnc(-c4nnc(C(F)(F)F)s4)n3c2)CC1 (centres unmarked) [Example 297, 8-(4-(3-oxabicyclo[3.1.0]hexane-6-carbonyl)piperazin-1-yl)-N-(1-cyanocyclopropyl)-3-(5-(trifluoromethyl)-1,3,4-thiadiazol-2-yl)imidazo[1,5-a]pyridine-6-sulfonamide] | 55 | 362 | – | – |
| O=C(C1COC1)N1CCN(c2cc(S(=O)(=O)NC3CC3)cn3c(-c4nnc(C(F)(F)F)s4)ncc23)CC1 [Example 217, N-cyclopropyl-8-(4-(oxetane-3-carbonyl)piperazin-1-yl)-3-(5-(trifluoromethyl)-1,3,4-thiadiazol-2-yl)imidazo[1,5-a]pyridine-6-sulfonamide] | 66.1 | 3070 | – | – |
| CN(C)C(=O)C1CCN(c2cc(S(=O)(=O)NC3(C#N)CC3)cn3c(-c4nnc(C(F)(F)F)s4)ncc23)CC1 [Example 214, 1-(6-(N-(1-cyanocyclopropyl)sulfamoyl)-3-(5-(trifluoromethyl)-1,3,4-thiadiazol-2-yl)imidazo[1,5-a]pyridin-8-yl)-N,N-dimethylpiperidine-4-carboxamide] | 174 | 4000 | – | – |
| CC(C)C(=O)N1CCN(c2cc(S(=O)(=O)NC3CC3)cn3c(-c4nnc(C(F)(F)F)s4)cnc23)CC1 [Example 208, N-cyclopropyl-8-(4-isobutyrylpiperazin-1-yl)-3-(5-(trifluoromethyl)-1,3,4-thiadiazol-2-yl)imidazo[1,2-a]pyridine-6-sulfonamide] | 110 | 3350 | – | – |
| CC(C)C(=O)N1CCN(c2cc(S(=O)(=O)NC3(C#N)CC3)cn3c(-c4nnc(C(F)(F)F)s4)cnc23)CC1 [Example 207, N-(1-cyanocyclopropyl)-8-(4-isobutyrylpiperazin-1-yl)-3-(5-(trifluoromethyl)-1,3,4-thiadiazol-2-yl)imidazo[1,2-a]pyridine-6-sulfonamide] | 39.8 | 1200 | – | – |
| N#CC1(NS(=O)(=O)c2cc(N3CCN(C(=O)[C@H]4CCN4)CC3)c3cnc(-c4nnc(C(F)(F)F)s4)n3c2)CC1 [Example 264, (R)-8-(4-(azetidine-2-carbonyl)piperazin-1-yl)-N-(1-cyanocyclopropyl)-3-(5-(trifluoromethyl)-1,3,4-thiadiazol-2-yl)imidazo[1,5-a]pyridine-6-sulfonamide] | 75.9 | 6640 | – | – |
| COC1(C(=O)N2CCN(c3cc(S(=O)(=O)NC4CC4)cn4c(-c5nnc(C(F)(F)F)s5)ncc34)CC2)CC1 [Example 194, N-cyclopropyl-8-(4-(1-methoxycyclopropane-1-carbonyl)piperazin-1-yl)-3-(5-(trifluoromethyl)-1,3,4-thiadiazol-2-yl)imidazo[1,5-a]pyridine-6-sulfonamide] | 3.21 | 84.8 | – | – |
| CC1(NS(=O)(=O)c2cc(N3CCN(C(=O)C4(F)CNC4)CC3)c3cnc(-c4nnc(C(F)(F)F)s4)n3c2)CC1 [Example 317, 8-(4-(3-fluoroazetidine-3-carbonyl)piperazin-1-yl)-N-(1-methylcyclopropyl)-3-(5-(trifluoromethyl)-1,3,4-thiadiazol-2-yl)imidazo[1,5-a]pyridine-6-sulfonamide] | 3.54 | 1140 | – | – |
